Measured values from PubChem BioAssay (NCI).
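Following 48 hours of exposure in 96-well plates, responses at five concentrations were used to interpolate endpoints linearly. TGI: total growth inhibition.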

Key:
Assay in all cases: inhibition of tumour cell growth, NCI panel, 48 h
[1] = system: MCF7 breast
[2] = system: HT29 colon
[3] = system: SK-MEL-28 melanoma
[4] = system: KM12 colon
[5] = system: MDA-MB-435
[6] = system: SN12C renal
[7] = system: HCC-2998 colon
[8] = system: SF-295 CNS
[9] = system: NCI-H23 lung
[10] = system: HOP-62 NSCLC
[11] = system: HCT-116 colon
[12] = system: COLO 205 colon
[13] = system: EKVX NSCLC
[14] = system: SR leukemia
[15] = system: HS 578T breast
[16] = system: SK-MEL-5 melanoma
[17] = system: TK-10 renal
[18] = system: NCI-H226 lung
[19] = system: SK-MEL-2 melanoma
[20] = system: A498 renal
[21] = system: SF-539 CNS
[22] = system: SW-620 colon
[23] = system: LOX IMVI melanoma
[24] = system: CCRF-CEM leukemia
[25] = system: RXF 393 renal
[26] = system: OVCAR-8 ovarian
[27] = system: MOLT-4 leukemia
[28] = system: M14 melanoma
[29] = system: PC-3 prostate
[30] = system: ACHN renal
[31] = system: UO-31 renal
[32] = system: HOP-92 NSCLC
[33] = system: A549 NSCLC
[34] = system: CAKI-1 renal
[35] = system: NCI-H460 lung
[36] = system: RPMI-8226 leukemia
[37] = system: K-562 leukemia
[38] = system: MDA-N
[39] = system: UACC-257 melanoma
[40] = system: MDA-MB-231 breast
[41] = system: 786-0 renal
[42] = system: MALME-3M melanoma
[43] = system: UACC-62 melanoma
[44] = system: DU-145 prostate
[45] = system: NCI-H522 lung
[46] = system: U251 CNS
[47] = system: SF-268 CNS
[48] = system: IGROV1 ovarian
[49] = system: BT-549 breast
[50] = system: OVCAR-4 ovarian
[51] = system: SNB-19 CNS
[52] = system: NCI/ADR-RES ovarian
[53] = system: OVCAR-3 ovarian
[54] = system: OVCAR-5 ovarian
[55] = system: HCT-15 colon
[56] = system: HL-60(TB) leukemia
[57] = system: SK-OV-3 ovarian
[58] = system: SNB-75 CNS

## CC(=O)Oc1ccc(/C=C/C(=O)NCC(NC(=O)/C=C/c2ccc(OC(C)=O)c(OC(C)=O)c2)C(=O)O)cc1OC(C)=O (stereo not given)
[1]
  TGI: > 100 µM
[2]
  TGI: > 100 µM
[3]
  TGI: > 100 µM
[4]
  TGI: > 100 µM
[5]
  TGI: > 100 µM
[6]
  TGI: > 100 µM
[7]
  TGI: > 100 µM
[8]
  TGI: > 100 µM
[9]
  TGI: > 100 µM
[10]
  TGI: > 100 µM
[11]
  TGI: > 100 µM
[12]
  TGI: > 100 µM
[13]
  TGI: > 100 µM
[14]
  TGI: > 100 µM
[15]
  TGI: > 100 µM
[16]
  TGI: > 100 µM
[17]
  TGI: > 100 µM
[18]
  TGI: > 100 µM
[19]
  TGI: > 100 µM
[20]
  TGI: > 100 µM
[21]
  TGI: > 100 µM
[22]
  TGI: > 100 µM
[23]
  TGI: > 100 µM
[24]
  TGI: > 100 µM
[25]
  TGI: > 100 µM
[26]
  TGI: > 100 µM
[27]
  TGI: 50.1 µM
[28]
  TGI: > 100 µM
[29]
  TGI: > 100 µM
[30]
  TGI: > 100 µM
[31]
  TGI: > 100 µM
[32]
  TGI: > 100 µM
[33]
  TGI: > 100 µM
[34]
  TGI: > 100 µM
[35]
  TGI: > 100 µM
[36]
  TGI: > 100 µM
[37]
  TGI: > 100 µM
[38]
  TGI: > 100 µM
[39]
  TGI: > 100 µM
[40]
  TGI: > 100 µM
[41]
  TGI: > 100 µM
[42]
  TGI: > 100 µM
[43]
  TGI: > 100 µM
[44]
  TGI: > 100 µM
[45]
  TGI: > 100 µM
[46]
  TGI: > 100 µM
[47]
  TGI: > 100 µM
[48]
  TGI: > 100 µM
[49]
  TGI: > 100 µM
[50]
  TGI: > 100 µM
[51]
  TGI: > 100 µM
[52]
  TGI: > 100 µM
[53]
  TGI: > 100 µM
[54]
  TGI: > 100 µM
[55]
  TGI: > 100 µM

## C/C(=N/NC(=S)N1CCCCC1)c1cccc(/C(C)=N\NC(=S)N2CCCCC2)n1
[1]
  TGI: 4.46 µM
[2]
  TGI: 7.22 µM
[3]
  TGI: 4.32 µM
[4]
  TGI: 6.14 µM
[5]
  TGI: 3.62 µM
[6]
  TGI: 4.83 µM
[7]
  TGI: 4.01 µM
[8]
  TGI: 4.06 µM
[9]
  TGI: > 100 µM
[10]
  TGI: 15.9 µM
[11]
  TGI: 3.64 µM
[12]
  TGI: 10.1 µM
[13]
  TGI: 5.79 µM
[14]
  TGI: 6.58 µM
[15]
  TGI: 6.57 µM
[16]
  TGI: 3.54 µM
[17]
  TGI: 3.69 µM
[18]
  TGI: 5.54 µM
[56]
  TGI: 5.66 µM
[19]
  TGI: 4.2 µM
[20]
  TGI: 3.16 µM
[21]
  TGI: 3.9 µM
[22]
  TGI: 10.6 µM
[23]
  TGI: 5.4 µM
[24]
  TGI: > 100 µM
[25]
  TGI: 5.15 µM
[26]
  TGI: 3.19 µM
[57]
  TGI: 3.56 µM
[58]
  TGI: 6.53 µM
[27]
  TGI: 6.38 µM
[29]
  TGI: 4.03 µM
[30]
  TGI: 3.02 µM
[31]
  TGI: 2.78 µM
[33]
  TGI: 7.29 µM
[34]
  TGI: 3.93 µM
[35]
  TGI: 4.75 µM
[36]
  TGI: 6.84 µM
[37]
  TGI: 6.65 µM
[38]
  TGI: 3.17 µM
[39]
  TGI: 6.85 µM
[40]
  TGI: 3.99 µM
[41]
  TGI: 3.46 µM
[42]
  TGI: 4.58 µM
[43]
  TGI: 5.54 µM
[44]
  TGI: 6.35 µM
[45]
  TGI: 4.34 µM
[46]
  TGI: 4.45 µM
[47]
  TGI: 9.06 µM
[48]
  TGI: 4.45 µM
[49]
  TGI: 3.4 µM
[51]
  TGI: 7.09 µM
[52]
  TGI: 4.72 µM
[53]
  TGI: 5.49 µM
[54]
  TGI: 2.44 µM
[55]
  TGI: 4.25 µM
